Among the test systems are A549 NSCLC; MALME-3M melanoma; NCI/ADR-RES ovarian; SF-539 CNS; SK-MEL-2 melanoma; ACHN renal; HOP-92 NSCLC; MDA-N; NCI-H522 lung; T-47D breast.
Common to all, as to assay: NCI-60 cell line screen, 48 h

Our source for the TGI and GI50 values is PubChem BioAssay (NCI).

Each structure is given as a SMILES string. Several values for one entry are separate records, joined by “and”; a condition that tells them apart may be missing. Equal values may be shown once.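 In this assay, cells in 96-well plates receive the compound at five concentrations for 48 hours. Endpoints are linearly interpolated between the surrounding concentrations. Abbreviation: GI50, concentration required for 50% inhibition of growth. TGI: concentration producing complete growth inhibition.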 Where a SMILES comes first, the peptide text is derived from it. [ ]: non-standard residue; d: D form. The star is where a group is joined. ξ: configuration not given here. ξF = NC(Cc1ccccc1)C(=O)O; Cbz = O=C(OCc1ccccc1)*; Aib = CC(C)(N)C(=O)O

`CN(C)CCNC(=O)c1cc(Cl)cc2cc3ccccc3nc12`: the TGI turned out to be 3.88 µM in the assay with A549 NSCLC; 14.9 µM with MALME-3M melanoma; 5.82 µM in the assay on NCI/ADR-RES ovarian; 3.84 µM in the assay on SF-539 CNS; 3.76 µM in the assay on SK-MEL-2 melanoma.
Regarding `CCOC(=O)CCC(C(=O)OCC)n1nc2ccc(Nc3c(C)[n+]([O-])c4cc(F)c(OCC)cc4[n+]3[O-])cc2n1` (stereo not given), the TGI was > 100 µM in the assay on A549 NSCLC; > 100 µM in the assay with ACHN renal; 87.8 µM in the assay on HOP-92 NSCLC; > 100 µM with MALME-3M melanoma; > 100 µM with MDA-N; > 100 µM in the assay with NCI-H522 lung. For the same compound, the TGI in the assay with NCI/ADR-RES ovarian is > 100 µM; in the assay on SF-539 CNS it was 63.1 µM; in the assay with SK-MEL-2 melanoma it was > 100 µM; with T-47D breast, > 100 µM.
`OCC(O)CNc1ncnc2ccccc12` (stereo not given): the TGI in the assay with A549 NSCLC, with ACHN renal, in the assay with HOP-92 NSCLC, with MALME-3M melanoma, in the assay with MDA-N and with NCI-H522 lung was > 100 µM throughout. Moreover, the TGI in the assay with NCI/ADR-RES ovarian, in the assay on SK-MEL-2 melanoma and in the assay on T-47D breast was > 100 µM each time.
As to `O=C1c2cccnc2C(=O)c2c1c(C(=O)OCCN1CCCCC1)c1ccccn21`, the GI50 in the assay on ACHN renal was 0.0129 µM; in the assay on HOP-92 NSCLC it was 0.0426 µM; in the assay on MALME-3M melanoma, 0.0847 µM; in the assay on NCI-H522 lung it was 0.018 µM; with NCI/ADR-RES ovarian, 0.0331 µM; with SF-539 CNS, 0.0174 µM. The GI50 in the assay on SK-MEL-2 melanoma was 0.0909 µM; in the assay with T-47D breast, 0.515 µM. Besides, the TGI in the assay with ACHN renal was 0.0534 µM; in the assay on HOP-92 NSCLC, 0.285 µM; with MALME-3M melanoma it was 0.424 µM; in the assay with NCI-H522 lung, 0.0992 µM; in the assay with NCI/ADR-RES ovarian, 1.07 µM; in the assay on SF-539 CNS, 0.155 µM. Further, the figures for the TGI with SK-MEL-2 melanoma and in the assay with T-47D breast were 0.224 µM and 7.4 µM, respectively.
For `O=C(CSCC(=O)N/N=C/c1ccccc1)N/N=C\c1ccccc1`, the TGI with A549 NSCLC, with ACHN renal, with HOP-92 NSCLC, in the assay with MALME-3M melanoma, with NCI-H522 lung and with NCI/ADR-RES ovarian was > 100 µM throughout. The TGI in the assay on SF-539 CNS, in the assay with SK-MEL-2 melanoma and in the assay with T-47D breast was > 100 µM each time.
On to `CC1(CO)COS(=O)OC1` (stereo not given), for which the TGI in the assay with A549 NSCLC, in the assay on ACHN renal, with HOP-92 NSCLC, with MDA-N, with NCI-H522 lung and with NCI/ADR-RES ovarian was > 100 µM throughout. Further, the TGI in the assay on T-47D breast is > 100 µM.
For the compound `CC(C)(C)OC(=O)N1C(OP(=O)(Oc2ccccc2)Oc2ccccc2)=CSc2ccccc21`, the TGI was > 100 µM in the assay with A549 NSCLC; > 100 µM in the assay on ACHN renal; 80.9 µM in the assay on HOP-92 NSCLC; 88.1 µM in the assay with MALME-3M melanoma; > 100 µM in the assay with MDA-N; > 100 µM with NCI-H522 lung. Also, the TGI is > 100 µM with NCI/ADR-RES ovarian, > 100 µM with SF-539 CNS, 43.7 µM in the assay with SK-MEL-2 melanoma and > 100 µM in the assay on T-47D breast.
Consider `OC[C@H]1NC[C@@H](O)[C@@H](O)[C@H]1O`, for which the TGI in the assay on HOP-92 NSCLC, in the assay with MALME-3M melanoma, with MDA-N, in the assay with NCI/ADR-RES ovarian, in the assay with SK-MEL-2 melanoma and in the assay with T-47D breast was > 100 µM throughout.
Consider `CCOC(=O)CNC(=O)C(Cc1ccccc1)NC(=O)C(C)(C)NC(=O)OCc1ccccc1` (stereo not given) (Cbz-[Aib]-[ξF]-Gly-OEt), for which the TGI with A549 NSCLC was > 100 µM; in the assay on ACHN renal, > 100 µM; with HOP-92 NSCLC, > 100 µM; with MALME-3M melanoma, 36.2 µM; in the assay with MDA-N, > 100 µM; in the assay with NCI-H522 lung, > 100 µM. Besides, the TGI in the assay on NCI/ADR-RES ovarian and in the assay with T-47D breast was > 100 µM throughout.
`CC(C)CCCC(C)[C@H]1CC[C@H]2n3c(nc4ccccc43)CCC[C@]12C` (stereo not given in full): the TGI in the assay with A549 NSCLC came to 50.3 µM; in the assay with HOP-92 NSCLC, 37.3 µM; in the assay with MALME-3M melanoma, 46.1 µM; with MDA-N it was 32.4 µM; in the assay with NCI/ADR-RES ovarian, 33.8 µM; in the assay with SF-539 CNS it was 35.2 µM. Also, the TGI with SK-MEL-2 melanoma was 35.5 µM; in the assay with T-47D breast, 35.8 µM.
With `Nc1[nH]c(=S)nc2nc3c(c(-c4ccccc4)c12)CCCC3`, the TGI in the assay with A549 NSCLC, in the assay with ACHN renal, in the assay with MALME-3M melanoma, in the assay with MDA-N, with NCI/ADR-RES ovarian and with SF-539 CNS was > 100 µM each time. For the same compound, the TGI with T-47D breast was > 100 µM.
As to `CN(Cc1cn(O)c2nc(=N)nc(N)c-2n1)c1ccc(C(=O)NC23CC4CC(CC(C4)C2)C3)cc1`, the TGI in the assay on ACHN renal, in the assay on MALME-3M melanoma, in the assay with MDA-N, in the assay on NCI/ADR-RES ovarian, with SK-MEL-2 melanoma and in the assay with T-47D breast was > 100 µM in each case.
Consider `COc1ccccc1CC(C)N` (stereo not given), for which the TGI in the assay on A549 NSCLC, with ACHN renal, in the assay with HOP-92 NSCLC, in the assay on MALME-3M melanoma, in the assay on NCI-H522 lung and with SF-539 CNS was > 100 µM throughout. Moreover, the TGI in the assay on SK-MEL-2 melanoma was > 100 µM.
In the case of `NC(CCOCCP(=O)(O)CCC1C=CC=CC1)C(=O)O` (stereo not given), the TGI with A549 NSCLC, in the assay with ACHN renal, with HOP-92 NSCLC, in the assay on MDA-N, in the assay on NCI-H522 lung and in the assay on NCI/ADR-RES ovarian was > 100 µM each time. The TGI in the assay with SF-539 CNS, with SK-MEL-2 melanoma and in the assay with T-47D breast was > 100 µM throughout.
As for `S=c1c2[nH]cnc2ncn1CCSC1=NC=NC2=NC=NC21` (stereo not given), the TGI in the assay with A549 NSCLC, in the assay with ACHN renal, with HOP-92 NSCLC, with MALME-3M melanoma, with MDA-N and in the assay on NCI-H522 lung was > 100 µM throughout. Besides, the TGI with NCI/ADR-RES ovarian, with SF-539 CNS, in the assay with SK-MEL-2 melanoma and with T-47D breast was > 100 µM in each case.
In the case of `Nc1ccc(O)c2c1C(=O)c1c(N)ccc(O)c1C2=O`, the TGI in the assay with A549 NSCLC, with ACHN renal, with HOP-92 NSCLC, with MALME-3M melanoma, in the assay on NCI-H522 lung and with SF-539 CNS was > 100 µM throughout. Besides, the TGI with SK-MEL-2 melanoma is > 100 µM.
For the compound `CN(CC(=O)O)Cc1c(O)c(Cl)cc(Cl)c1Cl`, the TGI in the assay with A549 NSCLC, in the assay on ACHN renal, in the assay with HOP-92 NSCLC, in the assay with MALME-3M melanoma, with MDA-N and in the assay on NCI-H522 lung was > 100 µM in each case. Moreover, the TGI with NCI/ADR-RES ovarian, in the assay with SF-539 CNS, in the assay with SK-MEL-2 melanoma and in the assay with T-47D breast was > 100 µM each time.
For `Cc1cc2c(c(O)c1-c1c(C)cc(O)c3c1C(=O)C=CC3=O)C(=O)C=CC2=O`, the TGI with A549 NSCLC was 52.4 µM; in the assay on ACHN renal, 1.44 µM; in the assay on MDA-N, 4.03 µM; in the assay on NCI/ADR-RES ovarian, 13.8 µM; in the assay with SF-539 CNS it was 31.7 µM; in the assay on SK-MEL-2 melanoma, 62.1 µM. The compound also displayed a TGI with T-47D breast of 3.67 µM.
For the compound `CCN(CC)CC[n+]1ccc2c(C)c3[nH]c4ccc(O)cc4c3c(C)c2c1`, the GI50 with A549 NSCLC was 1.5 µM; with HOP-92 NSCLC, 2.33 µM; with MALME-3M melanoma, 3.91 µM; with NCI-H522 lung it was 1.56 µM; in the assay with NCI/ADR-RES ovarian, 21.7 µM; in the assay with SK-MEL-2 melanoma, 20.8 µM. In addition, the TGI in the assay on A549 NSCLC is 30.6 µM and 43.6 µM; with ACHN renal, 16.5 µM; with HOP-92 NSCLC, 32.6 µM and 12.4 µM; in the assay with MALME-3M melanoma it was 19.3 µM and 22.3 µM; in the assay on MDA-N, 25.7 µM; with NCI-H522 lung, 10.7 µM and 8.66 µM. Further, the TGI is 79.6 µM and 102 µM in the assay on NCI/ADR-RES ovarian; 19 µM and 31.8 µM in the assay with SF-539 CNS; 32 µM and 54.2 µM in the assay on SK-MEL-2 melanoma; 12.3 µM with T-47D breast.
Turning to `O=C(NC(Cc1ccc(Br)cc1)C(=O)O)c1ccc(I)cc1` (stereo not given), the TGI in the assay on A549 NSCLC, in the assay on HOP-92 NSCLC, in the assay on MALME-3M melanoma, in the assay on NCI-H522 lung, in the assay with NCI/ADR-RES ovarian and in the assay with SF-539 CNS was > 100 µM throughout. In addition, in the assay on SK-MEL-2 melanoma, the TGI was > 100 µM.
In the case of `CSc1nc(CO)c(CO)n1C`, the TGI with A549 NSCLC, in the assay with HOP-92 NSCLC, in the assay with NCI-H522 lung, with NCI/ADR-RES ovarian, with SF-539 CNS and with SK-MEL-2 melanoma was > 100 µM in each case.
In the case of `CNC1Cc2c[nH]c3cccc(c23)C12C=C(C)C(=O)O2` (stereo not given), the TGI in the assay with A549 NSCLC, in the assay on ACHN renal, in the assay with HOP-92 NSCLC, with MALME-3M melanoma, with MDA-N and with NCI-H522 lung was > 100 µM in each case. Besides, the TGI in the assay with NCI/ADR-RES ovarian, in the assay with SF-539 CNS, with SK-MEL-2 melanoma and with T-47D breast was > 100 µM each time.
For `CC1C(=O)CC(c2cccs2)N(N=O)C1c1cccs1` (stereo not given), the TGI in the assay with A549 NSCLC is > 100 µM; in the assay on HOP-92 NSCLC, 83.3 µM; with MALME-3M melanoma, > 100 µM; in the assay on NCI-H522 lung, > 100 µM; in the assay with NCI/ADR-RES ovarian, > 100 µM; in the assay on SF-539 CNS, > 100 µM. Moreover, the TGI with SK-MEL-2 melanoma was > 92.3 µM.
As for `Clc1cc(Cl)c2cc3cccc[n+]3cc2c1Cl`, the TGI with A549 NSCLC was found to be 34.1 µM; with ACHN renal it was 31.7 µM; in the assay on HOP-92 NSCLC it was 21.7 µM; in the assay on MALME-3M melanoma, 53.7 µM; in the assay with MDA-N, 32.8 µM; in the assay with NCI/ADR-RES ovarian, 33.2 µM. For the same compound, the results for the TGI in the assay on SF-539 CNS, in the assay on SK-MEL-2 melanoma and in the assay on T-47D breast were 32.4 µM, 30.1 µM and 23.9 µM, respectively.
As to `CCCCCCCCCCCCCC1=C(O)C(=O)C(CC2=C(O)C(=O)C(CCCCCCCCCCCCC)=C(O)C2=O)=C(O)C1=O`, the TGI with A549 NSCLC, in the assay on ACHN renal, with HOP-92 NSCLC, in the assay on MALME-3M melanoma, in the assay on MDA-N and in the assay on NCI-H522 lung was > 100 µM throughout. Moreover, the TGI with SF-539 CNS, with SK-MEL-2 melanoma and in the assay on T-47D breast was > 100 µM in each case.
